Laboratory results taken from patent US11110055B2, “Pharmaceutical formulations of tropomyosin related kinase (TRK) inhibitors” (Genzyme Corporation, priority 2014, dated 2021).

Experiment: Physical stability and aqueous dissolution of monohydrate versus anhydrate form
Assay type: physicochemical

stability in solution	aqueous dissolution compared to the anhydrate form	physical stability compared to the anhydrate form	SMILES
relatively unstable in solution	–	–	COc1ccc(COc2ccc(Cn3c(N)nc4cc(-c5cnn(C)c5)cnc43)cc2OC)cc1 [GZ389988, 3-(3-methoxy-4-((4-methoxybenzyl)oxy)benzyl)-6-(1-methyl-1H-pyrazol-4-yl)-3H-imidazo[4,5-b]pyridin-2-amine]
–	slower aqueous dissolution	better physical stability	COc1ccc(COc2ccc(Cn3c(N)nc4cc(-c5cnn(C)c5)cnc43)cc2OC)cc1 [GZ389988A, 3-(3-methoxy-4-((4-methoxybenzyl)oxy)benzyl)-6-(1-methyl-1H-pyrazol-4-yl)-3H-imidazo[4,5-b]pyridin-2-amine monohydrate]
